Results on 1 molecule are retold here after PMC8775250, “Cryo-EM Structure of the Rhodobacter sphaeroides Light-Harvesting 2 Complex at 2.1 Å” (Biochemistry, 2021).

For this assay, the target named is T1, Rba. sphaeroides LH2 complex (light-harvesting 2 antenna, LH2 αβ) (Cereibacter sphaeroides, UniProt Q3J144+Q3J145).
T1 construct: gene pucA; native untagged complex purified from Rba. sphaeroides B7 membranes in LDAO; nonamer of αβ heterodimers; alpha N-terminal carboxymethionine; beta C-terminus Gly51
The assay is described as follows: cryo-EM structure ([…] Å). It counts as binding. Conditions: one carotenoid per αβ heterodimer (9 per nonamer); native bound pigment; pH 7.8, LDAO.

T1 sequence (Q3J145 whole entry): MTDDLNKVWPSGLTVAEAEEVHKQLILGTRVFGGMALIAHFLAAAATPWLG
T1 sequence (Q3J144 1-50): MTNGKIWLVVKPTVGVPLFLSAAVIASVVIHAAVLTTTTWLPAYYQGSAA

Take `COC(C)(C)C/C=C/C(C)=C/C=C/C(C)=C/C=C/C(C)=C/C=C/C=C(C)/C=C/C=C(\C)CC/C=C(\C)CCC=C(C)C` [spheroidene]: the “cryo-EM structure (2.1 Å)” value is “the carotenoid spheroidene adopts an all-trans conformation as it winds through the LH2 complex”.
